Data taken from US9814238B2, “Herbicide composition” (ISHIHARA SANGYO KAISHA, LTD., priority 2013, dated 2017).

Legend:
Format in all cases: in vivo
[1] = tested on: common horsetail (Equisetum arvense); test: Test Example 5: foliar treatment of common horsetail in orchard field, visual growth inhibition rate; settings: foliar treatment at height 15 to 20 cm, 23rd day after treatment
Excerpt: (§1) When the herbicidal activity in a case where two active ingredients are combined, is larger than the simple sum of the respective herbicidal activities of the two active ingredients (the expected activity), it is called a synergistic effect. The activity expected by the combination of two active ingredients can be calculated as follows (Colby S. R., “Weed”, vol. 15, p. 20-22, 1967). E=α+β−(α×β÷100) where α: growth inhibition rate when treated with x (g/ha) of herbicide X,
(§2) β: growth inhibition rate when treated with y (g/ha) of herbicide Y,
(§3) E: growth inhibition rate expected when treated with x (g/ha) of herbicide X and y (g/ha) of herbicide Y.
(§4) That is, when the actual growth inhibition rate (measured value) is larger than the growth inhibition rate by the above calculation (calculated value), the activity by the combination can be regarded as showing a synergistic effect.
(§5) An orchard field was compartmentalized into 0.5 square meter per test section, When common horsetail (Equisetum arvense) which naturally grew thereafter reached a height of from 15 to 20 cm, predetermined amounts of ME formulation containing tiafenacil as an active ingredient (the same as in Test Example 3) and WG formulation containing flazasulfuron as an active ingredient (the same as in Test Example 1) were diluted with water (in an amount corresponding to 300 L/ha) containing 0.5 vol % of an agricultural adjuvant (tradename: Destiny HC, manufactured by Winfield Solutions LLC.) and applied for foliar treatment by a small sprayer.
On the 23rd day after treatment, the state of growth of the common horsetail was visually observed to determine the growth inhibition rate in accordance with the same evaluation standard as in Test Example 1. The growth inhibition rate (%) (measured value) and the growth inhibition rate (%) (calculated value) calculated by the Colby's formula are shown in Table 5.

[2] = tested on: common dayflower (Commelina communis L.); test: Test Example 3: foliar treatment of common dayflower in orchard field, visual growth inhibition rate; settings: foliar treatment at height 35 to 40 cm, 23rd day after treatment
Excerpt: as §1, §2, §3, §4
as §5, with “section.” for “section,”, “dayflower (Commelina communis L.)” for “horsetail (Equisetum arvense)”, “35” for “15”, “40” for “20”, “a microemulsion (ME formulation)” for “ME formulation”, “prepared by a conventional method” for “as an active ingredient (the same as in Test Example 3)”
On the 23rd day after treatment, the state of growth of the common dayflower was visually observed to determine the growth inhibition rate in accordance with the same evaluation standard as in Test Example 1. The growth inhibition rate (%) (measured value) and the growth inhibition rate (%) (calculated value) calculated by the Colby's formula are shown in Table 3.

[3] = tested on: large crabgrass (Digitaria sanguinalis L.); test: Test Example 2: soil treatment of large crabgrass in pot, visual growth inhibition rate; settings: soil treatment day after sowing, 14th day after treatment
Excerpt: as §1, §2, §3, §4
Upland field soil was put into a 1/500,000 ha pot, and seeds of large crabgrass (Digitaria sanguinalis L.) were sown. […]
On the 14th day after treatment, the state of growth of the large crabgrass was visually observed to determine the growth inhibition rate in accordance with the same evaluation standard as in Test Example 1. The growth inhibition rate (%) (measured value) and the growth inhibition rate (%) (calculated value) calculated by the Colby's formula are shown in Table 2.

[4] = tested on: large crabgrass (Digitaria sanguinalis L.); test: Test Example 4: foliar treatment of large crabgrass in orchard field, visual growth inhibition rate; settings: foliar treatment at height 50 to 55 cm, 23rd day after treatment
Excerpt: as §1, §2, §3, §4
as §5, with “section.” for “section,”, “large crabgrass (Digitaria sanguinalis L.)” for “common horsetail (Equisetum arvense)”, “50” for “15”, “55” for “20”
On the 23rd day after treatment, the state of growth of the […] was visually observed to determine the growth inhibition rate in accordance with the same evaluation standard as in Test Example 1. The growth inhibition rate (%) (measured value) and the growth inhibition rate (%) (calculated value) calculated by the Colby's formula are shown in Table 4.

[5] = tested on: large crabgrass (Digitaria sanquinalis L.); test: Test Example 1: foliar treatment of large crabgrass in vat, visual growth inhibition rate; settings: foliar treatment at 7-leaf stage, 24th day after treatment
Excerpt: as §1, §2, §3, §4
Upland field soil was put into a 1/1,000,000 ha vat, and seeds of large crabgrass (Digitaria sanquinalis L.) were sown. When the large crabgrass reached 7-leaf stage, predetermined amounts of an emulsifiable concentrate (EC formulation) containing tiafenacil prepared by a conventional method, water dispersible granules containing flazasulfuron as an active ingredient (WG formulation, tradename: SHIBAGEN DF manufactured by Ishihara Sangyo Kaisha, Ltd.), were diluted with water in an amount corresponding to 300 L/ha, and applied for foliar treatment by a small sprayer.
On the 24th day after treatment, the state of growth of the large crabgrass was visually observed to determine the growth inhibition rate in accordance with the following evaluation standard. The growth inhibition rate (%) (measured value) and the growth inhibition rate (%) (calculated value) calculated by the Colby's formula are shown in Table 1. Growth inhibition rate (%)=0 (equivalent to the non-treated area) to 100 (complete kill)

Compound	Growth inhibition rate (%) of common horsetail, Measured value ([1]; dose 25 g/ha)	Growth inhibition rate (%) of common horsetail, Measured value ([1]; dose 50 g/ha)	Growth inhibition rate (%) of common horsetail, Measured value ([1]; dose 100 g/ha)	Growth inhibition rate (%) of common horsetail, Measured value ([1]; dose 150 g/ha)	Growth inhibition rate (%) of common dayflower, Measured value ([2]; dose 25 g/ha)	Growth inhibition rate (%) of common dayflower, Measured value ([2]; dose 50 g/ha)	Growth inhibition rate (%) of large crabgrass, Measured value ([3]; dose 50 g/ha)	Growth inhibition rate (%) of large crabgrass, Measured value ([4]; dose 25 g/ha)	Growth inhibition rate (%) of large crabgrass, Measured value ([4]; dose 50 g/ha)	Growth inhibition rate (%) of large crabgrass, Measured value ([4]; dose 100 g/ha)	Growth inhibition rate (%) of large crabgrass, Measured value ([5]; dose 12.5 g/ha)	Growth inhibition rate (%) of large crabgrass, Measured value ([5]; dose 25 g/ha)	inhibition at 20 g/ha ([1]; Equisetum arvense, dose 20 g/ha, read-out: Growth inhibition rate (%) of common horsetail, Measured value)	inhibition at 40 g/ha ([1]; Equisetum arvense, dose 40 g/ha, read-out: Growth inhibition rate (%) of common horsetail, Measured value)	inhibition at 20 g/ha ([2]; Commelina communis, dose 20 g/ha, read-out: Growth inhibition rate (%) of common dayflower, Measured value)	inhibition at 40 g/ha ([2]; Commelina communis, dose 40 g/ha, read-out: Growth inhibition rate (%) of common dayflower, Measured value)	inhibition at 20 g/ha ([3]; Digitaria sanguinalis, dose 20 g/ha, read-out: Growth inhibition rate (%) of large crabgrass, Measured value)	inhibition at 40 g/ha ([4]; Digitaria sanguinalis, dose 40 g/ha, read-out: Growth inhibition rate (%) of large crabgrass, Measured value)	inhibition at 20 g/ha ([5]; Digitaria, dose 20 g/ha, read-out: Growth inhibition rate (%) of large crabgrass, Measured value)
COC(=O)CCNC(=O)C(C)Sc1cc(-n2c(=O)cc(C(F)(F)F)n(C)c2=O)c(F)cc1Cl (racemic) [Tiafenacil, methyl 3-((2RS)-2-{2-chloro-4-fluoro-5-[1,2,3,6-tetrahydro-3-methyl-2,6-dioxo-4-(trifluoromethyl)pyrimidin-1(6H)-yl]phenylthio}propionamido]propionate]	63%	63%	68%	55%	50%	60%	65%	5%	5%	8%	20%	30%							
COc1cc(OC)nc(NC(=O)NS(=O)(=O)c2ncccc2C(F)(F)F)n1 [Flazasulfuron, 1-(4,6-dimethoxypyrimidin-2-yl)-3-(3-trifluoromethyl-2-pyridylsulfonyl)urea]													55%	53%	45%	40%	60%	33%	40%
